Reference: patent US20250235450A1, “COMBINATION THERAPIES COMPRISING APREMILAST AND TYK2 INHIBITORS” (Celgene Corporation, priority 2019, published 2025)
Entries after “also recorded” stand apart in the source; their conditions may differ.

Experiments:
[1] = system: moderate to severe plaque psoriasis; settings: cited from earlier work
LPS stimulated PBMCs = assay: Cytokine production in LPS stimulated PBMCs; type: cell-based, human; design: key to IL-2 / IFNα2 / IFSNβ / IL-4 / IL-5 / IL-6 / IL-10 / IL-13 / IL-15 / IL-17 / IL-22 / IL-1β / IL-1ra / IL-23 / IL-12p40 / IL-12p70 / TNF-α / IFNγ / MCP-1 / GM-CSF / G-CSF: ↑: Induced; —: No change; ↓: Reduced; settings: for effect on IFN-γ production / effect on IL-12p40 production / effect on IL-12p70 production / effect on IL-23 production / effect on MCP-1 production / effect on TNF-α production: vs DMSO control
Method: Peripheral blood mononuclear cells (PBMCs) isolation: Whole blood was received through the Celgene Donor program after informed consent and donor deidentification. All volunteers were healthy and were not on any medications for at least 72 hours prior to the blood draw. Blood was collected in Sodium Heparin tubes and were used within 2 hours of the blood draw for PBMCs isolation. Before PBMCs isolation, whole blood was diluted 1:1 with PBS solution containing 2% FBS (2% FBS-PBS). 13 ml of Ficoll-Paque solution was loaded in the SepMate® tube and 25 ml of diluted blood was loaded on top of the Ficoll-Paque. Centrifugation at 1200 g for 15 minutes with the brake on for cell separation, after which isolated PBMCs were transferred into a new tube. PBMCs were washed with 2% FBS-PBS and centrifuged at 800 g 10 minutes. Pellets were resuspended in 2% FBS-PBS and filtered through a 40 μm cell strainer to obtain single-cell suspension. 3 ml of RBC lysis buffer were used to eliminate red blood cells in the isolated population. Isolated PBMCs were washed with 2% FBS-PBS and were resuspended in RPMI growth medium containing 10% FBS and antibiotics.
For Example 6-11, PBMCs from 9 healthy donors were isolated and LPS-stimulated ex-vivo for IL-23, IL-12p40, IL-12p70, TNF-α, IFN-γ and MCP-1 cytokine analysis. PBMCs were plated in 96 well plate at a density of 200,000 cells per well in 200 μl of RPMI growth medium containing 10% FBS followed by treatment with DMSO and compounds. Each well received the same amount of DMSO, which is 0.3% v/v as final concentration. Series dilutions of compound treatment was performed according to Table 4 shown below. After two hours of compound treatment, LPS 100 ng/ml as final concentration was used as the stimulator. PBMCs were then incubated in a 37° C./5% CO2 incubator for 16 hours.
After 16 hours incubation, supernatants were collected into new 96-well polypropylene plates and centrifuged at 4000 rpm for 10 minutes to get rid of cell debris. Cytokine production was measured by Luminex Bio-Plex Multiplex Immunoassay (Bio-Rad) according to the manufacturer's procedures. To ensure that supernatant level was within the range of the standard cytokine for the assay, samples were diluted 5 fold for IL-12p40 and 27-plex assays, and used neat for IL-23 assay.
Data processing for PBMCs assays was done using Bio-plex manager, and raw data was exported to Excel template for the cytokine analysis. Data was plotted using GraphPad Prism 7.0 (GraphPad Software, Inc., La Jolla, CA) and expressed as % of DMSO control. Statistical analysis was performed using One Way ANOVA and Tukey's multiple comparisons test.
To evaluate the combinatory effect of apremilast and BMS-986165, data from the two independent treatments were analyzed by comparing the combinatory response against the theoretical additive response of the two agents. The expected additive effect of two agents (A and B) was calculated using the fractional product method: (fu)A,B=(fu)A×(fu)B; where fu=fraction unaffected by treatment.

SMILES | G-CSF (LPS stimulated PBMCs; LPS stimulated PBMCs) | GM-CSF (LPS stimulated PBMCs; LPS stimulated PBMCs) | IFNα2 (LPS stimulated PBMCs; LPS stimulated PBMCs) | IFNγ (LPS stimulated PBMCs; LPS stimulated PBMCs) | IFSNβ (LPS stimulated PBMCs; LPS stimulated PBMCs) | IL-1ra (LPS stimulated PBMCs; LPS stimulated PBMCs) | IL-1β (LPS stimulated PBMCs; LPS stimulated PBMCs) | IL-2 (LPS stimulated PBMCs; LPS stimulated PBMCs) | IL-4 (LPS stimulated PBMCs; LPS stimulated PBMCs) | IL-5 (LPS stimulated PBMCs; LPS stimulated PBMCs) | IL-6 (LPS stimulated PBMCs; LPS stimulated PBMCs) | IL-10 (LPS stimulated PBMCs; LPS stimulated PBMCs) | IL-12p40 (LPS stimulated PBMCs; LPS stimulated PBMCs) | IL-12p70 (LPS stimulated PBMCs; LPS stimulated PBMCs) | IL-13 (LPS stimulated PBMCs; LPS stimulated PBMCs) | IL-15 (LPS stimulated PBMCs; LPS stimulated PBMCs) | IL-17 (LPS stimulated PBMCs; LPS stimulated PBMCs) | IL-22 (LPS stimulated PBMCs; LPS stimulated PBMCs) | IL-23 (LPS stimulated PBMCs; LPS stimulated PBMCs) | MCP-1 (LPS stimulated PBMCs; LPS stimulated PBMCs) | also measured
CCOc1cc([C@@H](CS(C)(=O)=O)N2C(=O)c3cccc(NC(C)=O)c3C2=O)ccc1OC [Apremilast, N-[2-[(1S)-1-(3-ethoxy-4-methoxyphenyl)-2-(methylsulfonyl)ethyl]-2,3-dihydro-1,3-dioxo-1H-isoindol-4-yl]acetamide] | ↑ | ↓ | — | ↓ | — | — | — | ↓ | — | — | — | ↑ | ↓ | ↓ | — | — | — | — | ↓ | ↓ | reduction in plaque psoriasis ([1]; achievable in some patients, just over 4 months of treatment): 75%; TNF-α (LPS stimulated PBMCs; LPS stimulated PBMCs): ↓; effect on IL-12 (LPS stimulated PBMCs; LPS stimulated PBMCs): inhibited; effect on IFN-γ production (LPS stimulated PBMCs; LPS stimulated PBMCs): decreased; also recorded: reduced; effect on IL-12p40 production (LPS stimulated PBMCs; LPS stimulated PBMCs): decreased; effect on IL-12p70 production (LPS stimulated PBMCs; LPS stimulated PBMCs): decreased; effect on IL-23 production (LPS stimulated PBMCs; LPS stimulated PBMCs): decreased; also recorded: inhibited; effect on MCP-1 production (LPS stimulated PBMCs; LPS stimulated PBMCs): decreased; also recorded: reduced; effect on TNF-α production (LPS stimulated PBMCs; LPS stimulated PBMCs): decreased; also recorded: inhibited
[2H]C([2H])([2H])NC(=O)c1nnc(NC(=O)C2CC2)cc1Nc1cccc(-c2ncn(C)n2)c1OC [BMS-986165, 6-(cyclopropanecarboxamido)-4-((2-methoxy-3-(1-methyl-1H-1,2,4-triazol-3-yl)phenyl)amino)-N-(methyl-d3)pyridazine-3-carboxamide] | ↑ | ↑ | — | ↓ | — | ↓ | — | — | — | — | — | — | ↑ | ↑ | ↑ | — | — | — | ↑↑ | ↓ | phase 2 clinical trial outcome ([1]; subjects with moderate to severe plaque psoriasis): positive results; increase of IL-23 compared to DMSO group (LPS stimulated PBMCs; 0.2 μM-2 μM BMS-986165): 20 fold; TNF-α (LPS stimulated PBMCs; LPS stimulated PBMCs): ↑; effect on IL-12 (LPS stimulated PBMCs; LPS stimulated PBMCs): increased; increase of TNF-α (LPS stimulated PBMCs; LPS stimulated PBMCs, BMS-986165 alone): 1.2-1.5 fold; effect on IFN-γ production (LPS stimulated PBMCs; LPS stimulated PBMCs): decreased; also recorded: reduced; effect on IL-12p40 production (LPS stimulated PBMCs; LPS stimulated PBMCs): increased; also recorded: induced; effect on IL-12p70 production (LPS stimulated PBMCs; LPS stimulated PBMCs): increased; also recorded: induced; effect on IL-23 production (LPS stimulated PBMCs; LPS stimulated PBMCs): induced; also recorded: increased; effect on MCP-1 production (LPS stimulated PBMCs; LPS stimulated PBMCs): decreased; also recorded: reduced; effect on TNF-α production (LPS stimulated PBMCs; LPS stimulated PBMCs): induced; also recorded: increased
